Measurements: patent US20160263108A1, “NRF2 INHIBITORS AND COMPOSITIONS FOR TREATING MYCOBACTERIAL INFECTIONS” (THE HAMNER INSTITUTES, priority 2013, published 2016)
Structures can show the parent of a compound that is named as a salt. Where two headings read alike, the source gives them in different places.

How the values were obtained:
[1] = test system: Nrf2-ARE activity in HepG2 cells; format: cell-based, human; conditions: for ARE-luciferase activity with Nrf2 activator: HepG2 cells treated with both drug and iAs3+ (FIG. 2A, FIG. 3); for inhibitory effect on ARE-luciferase activity: HepG2 cells, basal conditions (FIG. 2A, FIG. 3)
[2] = test system: Nrf2-ARE-dependent gene expression (Ho1); test: RT-qPCR of ARE-dependent gene in HepG2 cells; conditions: concentration-dependent, basal (FIG. 2B)
[3] = test system: Nrf2-ARE-dependent gene expression (Gclc, Nqo1, Ho1); test: RT-qPCR of ARE-dependent genes in 3T3-L1 preadipocytes; conditions: 10 mM
[4] = test system: Nrf2-ARE activity in HaCaT cells; format: cell-based, human
[5] = test system: Nrf2-ARE activity in 3T3-L1 preadipocytes; format: cell-based, mouse
[6] = test system: Nrf2-ARE-dependent gene expression (HO1, GCLM, SRX); conditions: THP-1 cells, concentration-dependent
Nrf2-ARE activity = format: cell-based
[7] = iAs3+-treated or tBHQ-treated conditions

Row | SMILES | inhibitory effect on ARE-luciferase activity (Nrf2-ARE activity; basal conditions) | inhibitory effect on ARE-luciferase activity (Nrf2-ARE activity; [7]) | further results
1 | NNC(=O)c1ccncc1 [Isoniazid] | – | – | ARE-luciferase activity with Nrf2 activator [1]: substantial ARE-luciferase activity; inhibitory effect on ARE-luciferase activity [1]: concentration-dependent inhibitory effect; gene expression of Heme oxygenase (Ho1) [2]: suppresses; gene expression of glutamate-cysteine ligase catalytic subunit (Gclc) ([3]; basal (FIG. 1B)): suppresses; gene expression of NAD(P)H dehydrogenase [quinone] 1 (Ngo1) ([3]; basal (FIG. 1C)): suppresses; gene expression of Heme oxygenase (Ho1) ([3]; basal (FIG. 1D)): suppresses; Nrf2-ARE-inhibitory effect (ARE-luciferase) [4]: Nrf2-ARE-inhibitory effect of isoniazid was also observed; ARE-luciferase activity with Nrf2 activator ([5]; 3T3-L1 cells treated with both drug and iAs3+ (FIG. 1A)): substantial ARE-luciferase activity; inhibitory effect on ARE-luciferase activity ([5]; 3T3-L1 cells, basal conditions, 1 mM to 50 mM (FIG. 1A)): concentration-dependent inhibitory effect
2 | CCc1cc(C(N)=S)ccn1 [Ethionamide] | – | – | gene expression (mRNA) of Heme oxygenase (HO1) ([6]; basal (FIG. 4A)): suppresses; gene expression (mRNA) of GCLM ([6]; basal (FIG. 4B)): suppresses; gene expression (mRNA) of sulfiredoxin (SRX) ([6]; basal (FIG. 4C)): suppresses; ARE-luciferase activity with Nrf2 activator [1]: substantial ARE-luciferase activity; inhibitory effect on ARE-luciferase activity [1]: concentration-dependent inhibitory effect
3 | C[C@@H]1CN(c2c(F)c(N)c3c(=O)c(C(=O)O)cn(C4CC4)c3c2F)C[C@H](C)N1 [Sparfloxacin] | concentration-dependent inhibitory effect | – | –
4 | Nc1cnccn1 [Aminopyrazine] | concentration-dependent inhibitory effect | concentration-dependent inhibitory effect | –
5 | NNC(=O)Cc1ccccc1 [Phenylacetic hydrazide] | concentration-dependent inhibitory effect | concentration-dependent inhibitory effect | –
6 | NNC(=O)c1ccco1 [2-Furoic hydrazide] | concentration-dependent inhibitory effect | concentration-dependent inhibitory effect | –
7 | NNc1ccccc1 [Phenylhydrazine] | concentration-dependent inhibitory effect | concentration-dependent inhibitory effect | –
8 | Cc1ccc(C(=O)NN)cc1 [p-Toluic hydrazide] | concentration-dependent inhibitory effect | concentration-dependent inhibitory effect | –
9 | NC(=O)c1cnccn1 [Pyrazinecarboxamide] | concentration-dependent inhibitory effect | concentration-dependent inhibitory effect | –
10 | CC[C@@H](CO)NCCN[C@@H](CC)CO [Ethambutol dihydrochloride] | concentration-dependent inhibitory effect | – | –
